Experimental data published in ChEMBL document CHEMBL3286266, “Development of novel benzomorpholine class of diacylglycerol acyltransferase I inhibitors” (ACS Med Chem Lett, 2014).
In brackets after ≈: the same amount, converted by molar mass.

Columns and labels:
[1] = molecular target: T1, Diacylglycerol O-acyltransferase 1 (Mus musculus, UniProt Q9Z2A7); experiment: Inhibition of mouse DGAT1 expressed in Sf9 insect cells using 1,2-dioleoyl-sn-glycerol and [14C]-palmitoyl-CoA substrate by scintillation counting analysis
T1 sequence (Q9Z2A7 whole entry): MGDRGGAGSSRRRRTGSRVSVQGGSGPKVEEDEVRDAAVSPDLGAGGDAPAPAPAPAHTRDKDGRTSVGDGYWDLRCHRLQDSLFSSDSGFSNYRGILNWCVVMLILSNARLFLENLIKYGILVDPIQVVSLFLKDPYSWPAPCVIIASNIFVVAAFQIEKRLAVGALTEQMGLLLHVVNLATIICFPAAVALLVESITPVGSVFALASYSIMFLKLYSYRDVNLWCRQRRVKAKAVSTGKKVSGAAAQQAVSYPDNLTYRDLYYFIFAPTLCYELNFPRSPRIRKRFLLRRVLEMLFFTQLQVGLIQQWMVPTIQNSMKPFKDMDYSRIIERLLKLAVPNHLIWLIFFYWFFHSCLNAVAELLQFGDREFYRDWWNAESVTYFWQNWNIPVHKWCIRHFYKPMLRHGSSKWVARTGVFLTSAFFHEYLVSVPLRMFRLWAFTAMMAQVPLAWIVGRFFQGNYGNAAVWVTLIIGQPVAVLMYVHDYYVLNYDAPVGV

Mus musculus [2] = experiment: Reduction in triglycerides level in mouse at 3 mg/kg, po after 2 hrs by postprandial triglyceride assay; format: functional
[3] = molecular target: T2, Diacylglycerol O-acyltransferase 1 (Homo sapiens, UniProt O75907); experiment: Inhibition of human DGAT1 expressed in Sf9 insect cells using 1,2-dioleoyl-sn-glycerol and [14C]-palmitoyl-CoA substrate by scintillation counting analysis
T2 sequence (O75907 whole entry): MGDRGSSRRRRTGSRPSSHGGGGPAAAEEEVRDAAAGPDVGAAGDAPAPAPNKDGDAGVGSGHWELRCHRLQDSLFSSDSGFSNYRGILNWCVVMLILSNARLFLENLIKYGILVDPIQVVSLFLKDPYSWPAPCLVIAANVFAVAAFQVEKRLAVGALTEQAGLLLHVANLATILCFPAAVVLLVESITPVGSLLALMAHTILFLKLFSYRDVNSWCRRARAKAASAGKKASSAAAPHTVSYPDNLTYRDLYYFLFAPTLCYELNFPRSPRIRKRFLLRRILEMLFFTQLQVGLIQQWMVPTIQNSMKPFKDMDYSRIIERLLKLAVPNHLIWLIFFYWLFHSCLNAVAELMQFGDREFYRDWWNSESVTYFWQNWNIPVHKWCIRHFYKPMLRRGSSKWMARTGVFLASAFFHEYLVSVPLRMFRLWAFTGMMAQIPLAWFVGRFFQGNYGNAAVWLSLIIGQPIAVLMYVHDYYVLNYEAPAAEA

Mus musculus [4] = experiment: Reduction in triglycerides level in mouse at 10 mg/kg, po after 2 hrs by postprandial triglyceride assay; format: functional
[5] = AUC in mouse at 10 mg/kg; format: ADME, organism-based; parameters: dose 10 mg/kg; conditions: plasma
[6] = molecular target: T3, Sterol O-acyltransferase 2 (Homo sapiens, UniProt O75908); experiment: Inhibition of human ACAT2 expressed in Sf9 insect cells using [14C]-oleoyl-CoA by scintillation counting analysis
T3 sequence (O75908 whole entry): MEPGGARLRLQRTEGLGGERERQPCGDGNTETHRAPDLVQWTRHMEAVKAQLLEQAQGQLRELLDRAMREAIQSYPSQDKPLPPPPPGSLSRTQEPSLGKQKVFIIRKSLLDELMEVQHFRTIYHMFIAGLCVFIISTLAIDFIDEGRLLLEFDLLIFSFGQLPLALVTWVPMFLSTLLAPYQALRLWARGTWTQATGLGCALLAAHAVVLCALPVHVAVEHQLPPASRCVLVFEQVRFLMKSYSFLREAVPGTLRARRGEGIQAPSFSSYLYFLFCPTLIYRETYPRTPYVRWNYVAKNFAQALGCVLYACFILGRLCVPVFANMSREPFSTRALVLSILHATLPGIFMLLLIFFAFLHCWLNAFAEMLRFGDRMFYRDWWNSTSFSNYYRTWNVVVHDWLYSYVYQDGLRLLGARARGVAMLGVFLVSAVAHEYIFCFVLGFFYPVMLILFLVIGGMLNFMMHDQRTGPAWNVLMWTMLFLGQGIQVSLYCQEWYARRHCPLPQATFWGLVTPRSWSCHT

[7] = Metabolic stability in human plasma assessed as compound loss measured at 12 hrs at 25 degC; format: ADME, cell-free; conditions: read-out: Drug metabolism
[8] = Permeability in human Caco2 cells; format: ADME, cell-based; conditions: Caco-2, read-out: permeability
CYP1A1 = molecular target: T4, CYP1A1 (Homo sapiens, UniProt P04798); experiment: Induction of CYP1A1 (unknown origin) at 30 uM relative to control; format: ADME; conditions: read-out: FC
T4 sequence (P04798 whole entry): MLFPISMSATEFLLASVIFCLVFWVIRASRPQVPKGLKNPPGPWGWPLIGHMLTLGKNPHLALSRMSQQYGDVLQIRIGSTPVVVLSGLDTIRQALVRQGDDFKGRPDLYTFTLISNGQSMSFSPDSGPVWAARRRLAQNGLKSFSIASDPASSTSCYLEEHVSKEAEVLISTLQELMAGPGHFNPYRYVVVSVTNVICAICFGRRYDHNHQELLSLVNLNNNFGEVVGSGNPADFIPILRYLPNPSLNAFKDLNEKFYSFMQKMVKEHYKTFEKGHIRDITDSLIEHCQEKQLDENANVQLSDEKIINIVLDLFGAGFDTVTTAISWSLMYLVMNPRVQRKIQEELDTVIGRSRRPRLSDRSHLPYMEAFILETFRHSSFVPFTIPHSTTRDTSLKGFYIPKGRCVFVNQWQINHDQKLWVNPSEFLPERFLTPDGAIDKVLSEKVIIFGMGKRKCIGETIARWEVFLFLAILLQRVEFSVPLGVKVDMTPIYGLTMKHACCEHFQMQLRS

[9] = Clearance in rat liver hepatocytes measured per million cells; format: ADME, cell-based, Hepatocyte; conditions: read-out: CLH
Homo sapiens [10] = organism: Homo sapiens; experiment: Selectivity for human DGAT1 over human DGAT2
[11] = Solubility of the compound; format: physicochemical
[12] = Clearance in human liver hepatocytes measured per million cells; format: ADME, cell-based, Hepatocyte; conditions: read-out: CLH
Homo sapiens [13] = organism: Homo sapiens; experiment: Selectivity for human DGAT1 over human ACAT

Row | SMILES | IC50 [1] | IC50 [3] | further results
1 | O=C(O)C[C@H]1CC[C@H](c2ccc(-c3ccc4c(c3)OCCN4C(=O)NC3CCCCC3)cc2)CC1 | 160 nM |  | 
2 | O=C(O)[C@@H]1CCC[C@H]1C(=O)c1ccc(-c2ccc3c(c2)OCCN3C(=O)Nc2ccccc2)cc1 | 830 nM |  | 
3 | CCc1ccccc1NC(=O)N1CC(C)Oc2cc(-c3ccc([C@H]4CC[C@H](CC(=O)O)CC4)cc3)ccc21 (stereo partly drawn) | 50 nM | 110 nM | inhibition in vivo at 3 mg/kg (Mus musculus [2]): 92%
4 | CCC1CN(C(=O)Nc2ccccc2)c2ccc(-c3cnc(OCC(C)(C)C(=O)O)nc3)cc2O1 (stereo not drawn) | 310 nM |  | 
5 | O=C(O)C[C@H]1CC[C@@H](c2ccc(-c3ccc4c(c3)OCCN4C(=O)Nc3ccccc3)cc2)CC1 | 45 nM | 52 nM | inhibition in vivo at 3 mg/kg (Mus musculus [2]): 2%
6 | O=C(O)C[C@H]1CC[C@H](c2ccc(-c3ccc4c(c3)N(C(=O)Nc3ccccc3)CCO4)cc2)CC1 | > 10000 nM | > 10000 nM | 
7 | CC1CN(C(=O)Nc2ccccc2)c2ccc(-c3ccc([C@H]4CC[C@H](CC(=O)O)CC4)cc3)cc2O1 (stereo partly drawn) | 33 nM | 91 nM | inhibition in vivo at 10 mg/kg (Mus musculus [4]): 85%; AUC [5]: 79 µM·h; IC50 [6]: 5000 nM
8 | O=C(O)C[C@H]1CC[C@H](c2ccc(-c3ccc4c(c3)OCCN4C(=O)Nc3ccccc3)cc2)CC1 |  |  | inhibition in vivo at 10 mg/kg (Mus musculus [4]): 52%; metabolised at 12 h [7]: 10%
9 | CC(C)c1ccccc1NC(=O)N1CCOc2cc(-c3ccc([C@H]4CC[C@H](CC(=O)O)CC4)cc3)ccc21 | 69 nM |  | 
10 | O=C(O)C[C@H]1CC[C@H](c2ccc(-c3ccc4c(c3)OCCN4C(=O)Nc3cc(C(F)(F)F)ccc3F)cc2)CC1 | 1200 nM |  | 
11 | CC1Oc2cc(-c3ccc([C@H]4CC[C@H](CC(=O)O)CC4)cc3)ccc2N(C(=O)Nc2ccccc2)C1=O (stereo partly drawn) | > 10000 nM | > 10000 nM | 
12 | O=C(O)C[C@H]1CC[C@H](c2ccc(-c3cccc4c3OCCN4C(=O)Nc3ccccc3)cc2)CC1 | > 10000 nM | > 10000 nM | 
13 | CCC1CN(C(=O)Nc2ccccc2)c2ccc(-c3ccc(OCC4(C(=O)O)CCC4)nc3)cc2O1 (stereo not drawn) | 110 nM |  | 
14 | O=C(O)C[C@H]1CC[C@H](c2ccc(-c3ccc4c(c3)OCCN4S(=O)(=O)Cc3ccccc3)cc2)CC1 | > 10000 nM | > 10000 nM | 
15 | CC1COc2cc(-c3ccc([C@H]4CC[C@H](CC(=O)O)CC4)cc3)ccc2N1C(=O)Nc1ccccc1 (stereo partly drawn) | 630 nM |  | 
16 | CCCC1CN(C(=O)Nc2ccccc2)c2ccc(-c3ccc([C@H]4CC[C@H](CC(=O)O)CC4)cc3)cc2O1 (stereo partly drawn) | 160 nM |  | 
17 | O=C(Nc1ccccc1)N1CCOc2cc(-c3ccc([C@H]4CC[C@H](Cc5nnn[nH]5)CC4)cc3)ccc21 | 170 nM |  | inhibition in vivo at 10 mg/kg (Mus musculus [4]): 9%
18 | C[C@H]1CN(C(=O)Nc2ccccc2)c2ccc(-c3ccc([C@H]4CC[C@H](CC(=O)O)CC4)cc3)cc2O1 | 360 nM | 530 nM | 
19 | CCc1ccccc1NC(=O)N1C[C@H](C)Oc2cc(-c3ccc([C@H]4CC[C@H](CC(=O)O)CC4)cc3)ccc21 | 53 nM | 85 nM | inhibition in vivo at 3 mg/kg (Mus musculus [2]): 46%

Row | SMILES | IC50 [1] | IC50 [3] | further results
20 | Nc1ccccc1NC(=O)N1CCOc2cc(-c3ccc([C@H]4CC[C@H](CC(=O)O)CC4)cc3)ccc21 | 5200 nM |  | 
21 | CC(C(=O)O)[C@H]1CC[C@H](c2ccc(-c3ccc4c(c3)OCCN4C(=O)Nc3ccccc3)cc2)CC1 (stereo partly drawn) | 200 nM |  | 
22 | CCOc1ccc(NC(=O)N2CCOc3cc(-c4ccc([C@H]5CC[C@H](CC(=O)O)CC5)cc4)ccc32)cc1 | 34 nM |  | 
23 | CCc1ccccc1NC(=O)N1CCOc2cc(-c3ccc([C@H]4CC[C@H](CC(=O)O)CC4)cc3)ccc21 | 37 nM |  | 
24 | O=C(O)C[C@H]1CC[C@H](c2ccc(-c3ccc4c(n3)OCCN4C(=O)Nc3ccccc3)cc2)CC1 | 550 nM |  | 
25 | O=C(O)C[C@H]1CC[C@H](c2ccc(-c3ccc4c(ccn4C(=O)Nc4ccccc4)c3)cc2)CC1 |  |  | Papp [8]: 17 ×10⁻⁶ cm/s; inhibition in vivo at 10 mg/kg (Mus musculus [4]): 45%; fold induction at 30 µM (CYP1A1): 3; hepatocyte CLint [9]: 3.9 µL/min/1e6 cells; Selectivity ratio (Homo sapiens [10]): 100; solubility [11]: 20 µM (≈ 9.05 µg/mL); hepatocyte CLint [12]: 7.6 µL/min/1e6 cells; Selectivity ratio (Homo sapiens [13]): 100
26 | CS(=O)(=O)NC(=O)C[C@H]1CC[C@H](c2ccc(-c3ccc4c(c3)OCCN4C(=O)Nc3ccccc3)cc2)CC1 | 7300 nM |  | 
27 | O=C(O)C[C@H]1CC[C@H](c2ccc(-c3ccc4c(c3)OCCN4c3nc4ccccc4o3)cc2)CC1 | > 10000 nM | > 10000 nM | 
28 | O=C(O)C[C@H]1CC[C@H](c2ccc(-c3ccc4c(c3)OCCN4C(=O)Nc3ccccc3C(=O)O)cc2)CC1 | > 10000 nM | > 10000 nM | 
29 | O=C(O)C[C@H]1CC[C@H](c2ccc(-c3cnc4c(c3)OCCN4C(=O)Nc3ccccc3)cc2)CC1 | > 10000 nM | > 10000 nM | 
30 | O=C(O)C[C@H]1CC[C@H](c2ccc(-c3ccc4c(c3)OCCN4C(=O)Cc3ccccc3)cc2)CC1 | 110 nM |  | 
31 | CC(C)C1CN(C(=O)Nc2ccccc2)c2ccc(-c3ccc([C@H]4CC[C@H](CC(=O)O)CC4)cc3)cc2O1 (stereo partly drawn) | 300 nM |  | 
32 | O=C(O)C[C@H]1CC[C@H](c2ccc(-c3ccc4c(c3)OCCN4C(=O)NCc3ccccc3)cc2)CC1 | 110 nM |  | 
33 | CCC1CN(C(=O)Nc2ccccc2)c2ccc(-c3ccc(OC[C@H]4C[C@@H]4C(=O)O)nc3)cc2O1 (relative stereo) | 210 nM |  | 
34 | CCC1CN(C(=O)Nc2ccccc2)c2ccc(-c3ccc([C@H]4CC[C@H](CC(=O)O)CC4)cc3)cc2O1 (stereo partly drawn) | 45 nM |  | inhibition in vivo at 10 mg/kg (Mus musculus [4]): 88%; AUC [5]: 63 µM·h
35 | O=C(O)C[C@H]1CC[C@H](c2ccc(-c3ccc4c(c3)OCCN4C(=O)Nc3ccccc3C(F)(F)F)cc2)CC1 | 16 nM |  | 
36 | O=C(O)C[C@H]1CC[C@H](c2ccc(-c3ccc4c(c3)OCCN4C(=O)NCCCCc3ccccc3)cc2)CC1 | 36 nM |  | inhibition in vivo at 10 mg/kg (Mus musculus [4]): 23%
37 | CCC1CN(C(=O)Nc2ccccc2)c2ccc(-c3ccc(OCC4(C(=O)O)CC4)nc3)cc2O1 (stereo not drawn) | 90 nM |  | 
38 | O=C(C[C@H]1CC[C@H](c2ccc(-c3ccc4c(c3)OCCN4C(=O)Nc3ccccc3)cc2)CC1)NO | 920 nM |  | 
